Test results as given in PubChem BioAssay (NCI).
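Dose response: 5 concentrations. Exposure: 48 h. Format: 96-well plates. Endpoint: linear interpolation; highest concentration if not reached. TGI: total growth inhibition.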

Assays:
Experiment in all cases: DTP human tumour cell line panel, 48 h
786-0 renal = test system: 786-0 renal
A549 NSCLC = test system: A549 NSCLC
CAKI-1 renal = test system: CAKI-1 renal
CCRF-CEM leukemia = test system: CCRF-CEM leukemia
COLO 205 colon = test system: COLO 205 colon
DU-145 prostate = test system: DU-145 prostate
EKVX NSCLC = test system: EKVX NSCLC
HCC-2998 colon = test system: HCC-2998 colon
HCT-15 colon = test system: HCT-15 colon
HL-60(TB) leukemia = test system: HL-60(TB) leukemia
HOP-62 NSCLC = test system: HOP-62 NSCLC
HT29 colon = test system: HT29 colon
IGROV1 ovarian = test system: IGROV1 ovarian
K-562 leukemia = test system: K-562 leukemia
KM12 colon = test system: KM12 colon
LOX IMVI melanoma = test system: LOX IMVI melanoma
M14 melanoma = test system: M14 melanoma
MALME-3M melanoma = test system: MALME-3M melanoma
MCF7 breast = test system: MCF7 breast
MDA-N = test system: MDA-N
MOLT-4 leukemia = test system: MOLT-4 leukemia
NCI-H23 lung = test system: NCI-H23 lung
OVCAR-8 ovarian = test system: OVCAR-8 ovarian
PC-3 prostate = test system: PC-3 prostate
RPMI-8226 leukemia = test system: RPMI-8226 leukemia
SF-268 CNS = test system: SF-268 CNS
SF-295 CNS = test system: SF-295 CNS
SK-MEL-28 melanoma = test system: SK-MEL-28 melanoma
SK-MEL-5 melanoma = test system: SK-MEL-5 melanoma
SK-OV-3 ovarian = test system: SK-OV-3 ovarian
SN12C renal = test system: SN12C renal
SNB-75 CNS = test system: SNB-75 CNS
SR leukemia = test system: SR leukemia
SW-620 colon = test system: SW-620 colon
T-47D breast = test system: T-47D breast
TK-10 renal = test system: TK-10 renal
UACC-257 melanoma = test system: UACC-257 melanoma
UACC-62 melanoma = test system: UACC-62 melanoma
ACHN renal = test system: ACHN renal
HCT-116 colon = test system: HCT-116 colon
HOP-92 NSCLC = test system: HOP-92 NSCLC
HS 578T breast = test system: HS 578T breast
MDA-MB-231 breast = test system: MDA-MB-231 breast
MDA-MB-435 = test system: MDA-MB-435
NCI-H226 lung = test system: NCI-H226 lung
NCI-H460 lung = test system: NCI-H460 lung
NCI/ADR-RES ovarian = test system: NCI/ADR-RES ovarian
OVCAR-3 ovarian = test system: OVCAR-3 ovarian
OVCAR-4 ovarian = test system: OVCAR-4 ovarian
OVCAR-5 ovarian = test system: OVCAR-5 ovarian
RXF 393 renal = test system: RXF 393 renal
SF-539 CNS = test system: SF-539 CNS
SK-MEL-2 melanoma = test system: SK-MEL-2 melanoma
SNB-19 CNS = test system: SNB-19 CNS
U251 CNS = test system: U251 CNS
UO-31 renal = test system: UO-31 renal

In the case of COc1ccc(C2=C(OC(=O)N(C)C)c3cccn3-c3cc(C(F)(F)F)ccc3S2)cc1, the TGI (786-0 renal) is reported as over 10 µM, the TGI (A549 NSCLC) is reported as over 10 µM and the TGI (CAKI-1 renal) is reported as over 10 µM. For the same compound, the TGI (CCRF-CEM leukemia) was over 10 µM, the TGI (COLO 205 colon) was over 10 µM and the TGI (DU-145 prostate) was over 10 µM. It also gave a TGI (EKVX NSCLC) of over 10 µM, a TGI (HCC-2998 colon) of over 10 µM and a TGI (HCT-15 colon) of over 10 µM. It also gave a TGI (HL-60(TB) leukemia) of over 10 µM, a TGI (HOP-62 NSCLC) of over 10 µM and a TGI (HT29 colon) of over 10 µM. It also gave a TGI (IGROV1 ovarian) of over 10 µM, a TGI (K-562 leukemia) of over 10 µM and a TGI (KM12 colon) of over 10 µM. The TGI (LOX IMVI melanoma) was over 10 µM, the TGI (M14 melanoma) was over 10 µM and the TGI (MALME-3M melanoma) was over 10 µM. It also gave a TGI (MCF7 breast) of over 10 µM, a TGI (MDA-N) of over 10 µM and a TGI (MOLT-4 leukemia) of over 10 µM. It also gave a TGI (NCI-H23 lung) of over 10 µM, a TGI (OVCAR-8 ovarian) of over 10 µM and a TGI (PC-3 prostate) of over 10 µM. For the same compound, the TGI (RPMI-8226 leukemia) was over 10 µM, the TGI (SF-268 CNS) was over 10 µM and the TGI (SF-295 CNS) was over 10 µM. It also gave a TGI (SK-MEL-28 melanoma) of over 10 µM, a TGI (SK-MEL-5 melanoma) of over 10 µM and a TGI (SK-OV-3 ovarian) of over 10 µM. The TGI (SN12C renal) was over 10 µM, the TGI (SNB-75 CNS) was over 10 µM and the TGI (SR leukemia) was over 10 µM. The TGI (SW-620 colon) was over 10 µM, the TGI (T-47D breast) was over 10 µM and the TGI (TK-10 renal) was over 10 µM. It also gave a TGI (UACC-257 melanoma) of over 10 µM and a TGI (UACC-62 melanoma) of over 10 µM.
Compound CC(=O)c1ccc(N=Nc2ccc3nonc3c2N)cc1 has a TGI (786-0 renal) of over 100 µM, a TGI (A549 NSCLC) of over 100 µM and a TGI (ACHN renal) of over 100 µM. It also gave a TGI (CAKI-1 renal) of over 100 µM, a TGI (CCRF-CEM leukemia) of over 100 µM and a TGI (COLO 205 colon) of over 100 µM. It also gave a TGI (DU-145 prostate) of over 100 µM, a TGI (EKVX NSCLC) of over 100 µM and a TGI (HCC-2998 colon) of over 100 µM. For the same compound, the TGI (HCT-116 colon) was over 100 µM, the TGI (HCT-15 colon) was over 100 µM and the TGI (HL-60(TB) leukemia) was over 100 µM. It also gave a TGI (HOP-62 NSCLC) of over 100 µM, a TGI (HOP-92 NSCLC) of over 100 µM and a TGI (HS 578T breast) of over 100 µM. For the same compound, the TGI (HT29 colon) was over 100 µM, the TGI (IGROV1 ovarian) was over 100 µM and the TGI (K-562 leukemia) was over 100 µM. The TGI (KM12 colon) was over 100 µM, the TGI (LOX IMVI melanoma) was over 100 µM and the TGI (M14 melanoma) was over 100 µM. It also gave a TGI (MALME-3M melanoma) of over 100 µM, a TGI (MCF7 breast) of over 100 µM and a TGI (MDA-MB-231 breast) of over 100 µM. For the same compound, the TGI (MDA-MB-435) was over 100 µM, the TGI (MDA-N) was over 100 µM and the TGI (MOLT-4 leukemia) was over 100 µM. The TGI (NCI-H226 lung) was over 100 µM, the TGI (NCI-H23 lung) was over 100 µM and the TGI (NCI-H460 lung) was over 100 µM. It also gave a TGI (NCI/ADR-RES ovarian) of over 100 µM, a TGI (OVCAR-3 ovarian) of over 100 µM and a TGI (OVCAR-4 ovarian) of over 100 µM. It also gave a TGI (OVCAR-5 ovarian) of over 100 µM, a TGI (OVCAR-8 ovarian) of over 100 µM and a TGI (PC-3 prostate) of over 100 µM. For the same compound, the TGI (RPMI-8226 leukemia) was over 100 µM, the TGI (RXF 393 renal) was over 100 µM and the TGI (SF-268 CNS) was over 100 µM. For the same compound, the TGI (SF-295 CNS) was over 100 µM, the TGI (SF-539 CNS) was over 100 µM and the TGI (SK-MEL-2 melanoma) was over 100 µM. The TGI (SK-MEL-28 melanoma) was over 100 µM, the TGI (SK-MEL-5 melanoma) was over 100 µM and the TGI (SK-OV-3 ovarian) was over 100 µM. It also gave a TGI (SN12C renal) of over 100 µM, a TGI (SNB-19 CNS) of over 100 µM and a TGI (SNB-75 CNS) of over 100 µM. The TGI (SR leukemia) was over 100 µM, the TGI (SW-620 colon) was over 100 µM and the TGI (T-47D breast) was over 100 µM. It also gave a TGI (TK-10 renal) of over 100 µM, a TGI (U251 CNS) of over 100 µM and a TGI (UACC-257 melanoma) of over 100 µM. It also gave a TGI (UACC-62 melanoma) of over 100 µM and a TGI (UO-31 renal) of over 100 µM.
